Patent publication US9938316B2, “Selective inhibitors of α2 isoform of Na,K-ATPase and use thereof for reduction of intra-ocular pressure and as cardiotonic agents” (priority 2013, dated 2018)

What was measured:
[1] = system: purified α2β1FXYD1 complexes of Na,K-ATPase; experiment: Dissociation of cardiac glycosides from the α2β1 isoform complex
Description: Since the principal isoform in NPE cells is α2 and dissociation from the pump is expected to affect the duration of the effects on IOP, the dissociation rates of different cardiac glycosides from the purified α2β1 isoform were compared.
Purified α2β1FXYD1 complexes (0.3-0.5 mg/ml) were incubated for 30 minutes at 37° C. in a medium containing ATP, 1 mM; NaCl 100 mM; MgCl2, 4 mM Histidine.HCl 25 mM pH 7.4 without (Control) or with 1 μM of different cardiac glycosides. The enzyme solutions were then diluted 100-fold into a medium containing 100 mM NaCl, 5 mM KCl, 1 mM EDTA (Tris), 0.005 mg/ml C12E8, 0.01 mg/ml SOPS, and 0.001 mg/ml cholesterol and incubated at 37° C. for different lengths of time. Aliquots were removed at different times and Na,K-ATPase activity was measured in triplicate over 0.5 minutes (digoxigenin) or 2 minutes (other cardiac glycosides) in the standard activity medium containing 200 μM ATP. The activity of test samples was divided by the activity of the control samples and the time-course for reversal of inhibition was analyzed by fitting the data to the function vt=v∞e^−kt+c. Normalized curves for comparison of different experiments (e.g. as in FIG. 9) were obtained by subtracting the constant value c from each value of the activity and re-fitting the ratio vt/v∞=1−e^−kt.

cornea of rabbits = experiment: Pachymetry: corneal thickness and local toxicity after topical cardiac glycosides; type: in vivo, New Zealand white rabbits; conditions: rabbit, in vivo
Description: Thus, in this study, no change in corneal thickness was detected (Table 3), indicative of lack of local toxic effects. […] Similar results were obtained with CG's applied after IB-MECA.
IOP (mm Hg) of rabbits was measured using a calibrated Pneumatonometer (Model 30, Reichert technologies, FIG. 1). A local anesthetic Oxybuprocaine HCl (0.4%, 25 μl) was applied to each cornea about a minute before IOP measurements. Two baseline IOP readings were taken before topical administration of the CG (or PBS as control) and after half an hour (Zero time). […] At zero time one drop of 4AP (40 mg/ml, 30 μl) or IB-MECA (1 μM, 30 μl) was administered to both eyes of each rabbit IOP measurements were made at different times as indicated in each experiment. In the experiments for which the IOP was elevated for several hours, 4AP was added every 1.5 hours or IB-MECA every 2 hours. […] Each experiment was repeated two or three times with similar results. In all cases the figures depict the average effect on IOP (i.e for four or six eyes) compared to control ±SEM. Where error bars are not seen in the figures, the errors are smaller than the symbols used. Significance of differences from the control was calculated by the unpaired Students t-test (p values), p values <0.05 were considered significant. Corneal thickness (μm) was measured using an ultrasonic pachymeter (Sonogage pachometer, Cleveland, USA), before and during the experiment with CG and 4AP treatments. The values represent averages of three independent measurements for each eye.

[2] = system: intra-ocular pressure (IOP) of rabbits; experiment: 4-aminopyridine (4AP)-induced ocular hypertension in rabbits; type: in vivo, New Zealand white rabbits; conditions: for Effect on 4AP-induced rise in IOP: 1 drop topically 30 minutes prior to 4AP
Description: Intra-ocular pressure in rabbits was measured using of a “Reichert Model 30™ Pneumatonometer” after anesthetizing the cornea with local anesthetic.
Since the IOP reflects a balance of the inflow and outflow of aqueous humour, reduction of the increased 4AP-induced inflow of aqueous humour by cardiac glycosides should prevent the increase in IOP. Thus, the standard experimental design to test effects of cardiac glycosides involved topical application of the compounds (1 drop in each eye) 30 minutes prior to application of 4AP and measurement of IOP every 30 minutes over five hours. […] Each experiment was done three times, but the figures depict a representative experiment using a different rabbit for each concentration of the cardiac glycoside.
DGlyN or DMe (0.1 or 1 mM) were applied one hour after the first application of 4AP, which was added every two hours.
New Zealand white rabbits (3-3.5 kg) about 1 year old, of either sex, were housed individually in separate cages in animal room conditions on a reversed, 12-hour dark/light cycle. For the experiments the animals were transferred to rabbit restrainers in a quiet and calm atmosphere (FIG. 1). […] Animal care and treatment were subject to the approval of the institutional committee for animal experiments, Weizmann Institute IACUC permission (no 04270911-2).
IOP (mm Hg) of rabbits was measured using a calibrated Pneumatonometer (Model 30, Reichert technologies, FIG. 1). A local anesthetic Oxybuprocaine HCl (0.4%, 25 μl) was applied to each cornea about a minute before IOP measurements. Two baseline IOP readings were taken before topical administration of the CG (or PBS as control) and after half an hour (Zero time). […] At zero time one drop of 4AP (40 mg/ml, 30 μl) or IB-MECA (1 μM, 30 μl) was administered to both eyes of each rabbit IOP measurements were made at different times as indicated in each experiment. In the experiments for which the IOP was elevated for several hours, 4AP was added every […] or IB-MECA every 2 hours. […] In all cases the figures depict the average effect on IOP (i.e for four or six eyes) compared to control ±SEM. […] Significance of differences from the control was calculated by the unpaired Students t-test (p values), p values <0.05 were considered significant. Corneal thickness (μm) was measured using an ultrasonic pachymeter (Sonogage pachometer, Cleveland, USA), before and during the experiment with CG and 4AP treatments. The values represent averages of three independent measurements for each eye.

[3] = system: Na,K-ATPase isoforms (α1β1, α2β1, α3β1); conditions: membranes; cited from earlier work

Compound: C[C@H]1O[C@@H](O[C@H]2[C@@H](O)C[C@H](O[C@H]3[C@@H](O)C[C@H](O[C@H]4CC[C@@]5(C)[C@H](CC[C@@H]6[C@@H]5C[C@@H](O)[C@]5(C)[C@@H](C7=CC(=O)OC7)CC[C@]65O)C4)O[C@@H]3C)O[C@@H]2C)C[C@H](O)[C@@H]1O [Digoxin, digoxin, reference compound]
- t1/2 ± SEM (dissociation) [1]: 47.5 ± 5.05 min
- k ± SEM (rate of dissociation) ([1]; α2β1 isoform complex, 37° C.): 0.015 ± 0.001, 4 min^−1
- Redness or local irritation in conjunctiva or cornea (cornea of rabbits): neither redness nor local irritation were observed
- Effect on 4AP-induced rise in IOP ([2]; 0.25 mM): poorly effective
- Effect on 4AP-induced rise in IOP ([2]; 1 mM): able to prevent the 4AP-induced rise in IOP
- Time IOP is maintained at the low level ([2]; 1 mM, single drop, 4AP every two hours): 1 h

Compound: C[C@]12CC[C@H](O)C[C@H]1CC[C@@H]1[C@@H]2CC[C@]2(C)[C@@H](C3=CC(=O)OC3)CC[C@]12O [digitoxgenin]
- Isoform selectivity of KD (in words) [3]: no isoform selectivity
